Marks after values point to notes of the source that are not given here.
Tests used:
[1] = test system: septic shock induced by LPS + D-Galactosamine, in mice; test: LPS+D-Galactosamine-induced septic shock model; type: in vivo, SPF female BALB/c inbred mice
Description: The experiments were carried out in vivo on mice. The septic shock was induced by an i.p. administration of a mixture of LPS (0.1 μg/mouse) and D-Galactosamine (18 mg/mouse).
The treatment schedule for r-hTBP-1 based on repeated administrations (the total dose was divided into 4 administrations given at time 0 and […] and 24 hours after), was adopted. CHO r-hTBP-1 was tested, alone or in combination with DHEA, at dose levels of 62.5 and 125 μg/mouse (total dose).
DHEA was tested both in a single administration injected i.p. one hour before and contemporaneously to the septic shock-inducing agent at doses encompassed between 100 and 2.000 μg/mouse and in repeated treatment with the total dose (250 μg/mouse) divided into 4 injections given within 24 hours.
The above treatment schedules of DHEA (doses from 250 to 1,500 μl g/mouse) were followed also in combination with r-hTBP-1 which was tested at the total dose varying from 62.5 to 125 μg/mouse (divided into 4 administrations).
SPF female BALB/c inbred mice, 6–8 weeks (about 18–20 g b.w.), from Charles River were used throughout the whole study after an acclimatisation period of at least 7 days.
Unless otherwise specified, in all the experiments the mice were randomly divided into groups of 10 animals each.
Both substances were dissolved in saline. The mixture of LPS (0.1 μg/mouse) and D-Galactosamine (18 mg/mouse) was prepared by mixing equal volumes of these substances. The mixture was subsequently injected to animals by the i.p. route. This dose was selected under precious experiments as that inducing around 80% mortality calculated as the number of dead vs. total number of mice for each croup. The lethality was monitored after 24, 48, 72 and 96 hours and at day 7 post-treatment.
The drug was diluted in saline and injected by repeated administrations, i.e. i.v. immediately before the inoculum of LPS plus D-Galactosamine and s.c. 3, 6 and 24 hours later.
The effects of DHEA, alone or in combination with r-hTBP-1, were assayed after single i.p. administrations at different times in respect to LPS+D-Galactosamine injection; in particular, it was administered 1 hour before and contemporaneously to the septic shock-inducing agent.
A repeated treatment schedule was also investigated in which DHEA was administered at time 0 (septic shock induction) and 3, 6 and 24 hours later. DHEA was initially vehicled in a mixture of 2.5% alcohol and 10% rabbit serum in saline. To improve the solubility and standardise the preparation, the steroid was successively dispersed in a mixture of 2.5% alcohol and 10% phospholipid emulsion in saline.
The primary end point was the survival rate at 48 hours after induction of septic shock. The comparison of the effects of each treatment group vs. controls and among treatment groups was effected by Fisher's exact test, one-tailed. The same comparison was also performed at the other time points. The results in each treatment group were expressed as percent survival.
In all the experiments, percent survival values were calculated using the survival Tables for the follow up studies (Armitage P. Cap. XIV. Tavole di sopravvivenza in Statistica Medica, Feltrinelli, Milano). The χ^2-test was applied to each observation time by comparing the DHEA+r-hTBP-1 groups to the other groups.

West Nile virus = details: cited from earlier work
[2] = test system: septic shock induced by Tumor Necrosis Factor alpha (TNF-α) in combination with D-Galactosamine; details: mice; cited from earlier work

With `C[C@]12CC[C@H](O)CC1=CC[C@@H]1[C@@H]2CC[C@]2(C)C(=O)CC[C@@H]12` [DHEA, Dehydroepiandrosterone] as the compound, how does the “% cumulative survival” value ([1]; DHEA 1500 μg/mouse i.p. 1 hour before LPS + D-Gal, saline 10% rabbit serum, 72 hrs, 2nd exp) read?
Its value is 50%.

And the “% cumulative survival” value ([1]; DHEA 1500 μg/mouse i.p. 1 hour before LPS + D-Gal, saline 10% rabbit serum, 96 hrs, 2nd exp)?
Its value is 50%.

What about the “% cumulative survival” value ([1]; DHEA 2000 μg/mouse i.p. 1 hour before LPS + D-Gal, saline 10% rabbit serum, 24 hrs, 1st exp) of the same compound?
The value was 100^a %.

What about the “% cumulative survival” value ([1]; DHEA 2000 μg/mouse i.p. 1 hour before LPS + D-Gal, saline 10% rabbit serum, 24 hrs, 2nd exp) of the same compound?
Its value is 100^a %.

What about the “% cumulative survival” value ([1]; DHEA 2000 μg/mouse i.p. 1 hour before LPS + D-Gal, saline 10% rabbit serum, 48 hrs, 1st exp) of the same compound?
Its value is 100^a %.

What about the “% cumulative survival” value ([1]; DHEA 2000 μg/mouse i.p. 1 hour before LPS + D-Gal, saline 10% rabbit serum, 48 hrs, 2nd exp) of the same compound?
The value was 100^a %.

What about the “% cumulative survival” value ([1]; DHEA 2000 μg/mouse i.p. 1 hour before LPS + D-Gal, saline 10% rabbit serum, 72 hrs, 1st exp) of the same compound?
Its value is 100^a %.

What about the “% cumulative survival” value ([1]; DHEA 2000 μg/mouse i.p. 1 hour before LPS + D-Gal, saline 10% rabbit serum, 72 hrs, 2nd exp) of the same compound?
Its value is 100^a %.

And the “% cumulative survival” value ([1]; DHEA 2000 μg/mouse i.p. 1 hour before LPS + D-Gal, saline 10% rabbit serum, 96 hrs, 1st exp)?
The value was 100^a %.

And the “% cumulative survival” value ([1]; DHEA 2000 μg/mouse i.p. 1 hour before LPS + D-Gal, saline 10% rabbit serum, 96 hrs, 2nd exp)?
Its value is 100^a %.

What about the survival ([1]; DHEA 1.000 and 1.500 μg/mouse alone) of the same compound?
Its survival is 0–40%.

What about the protective effects ([1]; DHEA at doses higher than 1.000 μg/mouse, 1 hour before LPS+D-Galactosamine) of the same compound?
The protective effects was “statistically significant protective effects”.

What about the protective effects ([1]; DHEA up to 1.000 μg/mouse, 1 hour before LPS+D-Galactosamine) of the same compound?
Its protective effects is “No protective effects”.

What about the “% cumulative survival” value ([1]; Table 2, DHEA 1000 μg/mouse i.p. 1 hour before LPS + D-Gal, saline 10% rabbit serum, 24 hrs) of the same compound?
The value was 0%.

And the “% cumulative survival” value ([1]; Table 2, DHEA 1000 μg/mouse i.p. 1 hour before LPS + D-Gal, saline 10% rabbit serum, 48 hrs)?
Its value is 0%.

What about the “% cumulative survival” value ([1]; Table 2, DHEA 1000 μg/mouse i.p. 1 hour before LPS + D-Gal, saline 10% rabbit serum, 72 hrs) of the same compound?
Its value is 0%.

What about the “% cumulative survival” value ([1]; Table 2, DHEA 1000 μg/mouse i.p. 1 hour before LPS + D-Gal, saline 10% rabbit serum, 96 hrs) of the same compound?
Its value is 0%.

What about the “% cumulative survival” value ([1]; Table 2, DHEA 1500 μg/mouse i.p. 1 hour before LPS + D-Gal, saline 10% rabbit serum, 24 hrs) of the same compound?
Its value is 40%.

And the “% cumulative survival” value ([1]; Table 2, DHEA 1500 μg/mouse i.p. 1 hour before LPS + D-Gal, saline 10% rabbit serum, 48 hrs)?
Its value is 40%.

What about the “% cumulative survival” value ([1]; Table 2, DHEA 1500 μg/mouse i.p. 1 hour before LPS + D-Gal, saline 10% rabbit serum, 72 hrs) of the same compound?
The value was 20%.

And the “% cumulative survival” value ([1]; Table 2, DHEA 1500 μg/mouse i.p. 1 hour before LPS + D-Gal, saline 10% rabbit serum, 96 hrs)?
The value was 20%.

What about the “% cumulative survival” value ([1]; Table 4, DHEA 250 μg single injection at time 0 i.p., NaCl 10% PLE, 24 hr) of the same compound?
Its value is 40%.

What about the “% cumulative survival” value ([1]; Table 4, DHEA 250 μg single injection at time 0 i.p., NaCl 10% PLE, 48 hr) of the same compound?
Its value is 30%.

What about the “% cumulative survival” value ([1]; Table 4, DHEA 250 μg single injection at time 0 i.p., NaCl 10% PLE, 72 hr) of the same compound?
Its value is 30%.

And the “% cumulative survival” value ([1]; Table 4, DHEA 250 μg single injection at time 0 i.p., NaCl 10% PLE, 96 hr)?
The value was 30%.

What about the “% cumulative survival” value ([1]; Table 4, DHEA 250 μg single injection at time 0 i.p., NaCl 10% RS, 24 hr) of the same compound?
Its value is 30%.

What about the “% cumulative survival” value ([1]; Table 4, DHEA 250 μg single injection at time 0 i.p., NaCl 10% RS, 48 hr) of the same compound?
The value was 30%.

What about the “% cumulative survival” value ([1]; Table 4, DHEA 250 μg single injection at time 0 i.p., NaCl 10% RS, 72 hr) of the same compound?
The value was 30%.

And the “% cumulative survival” value ([1]; Table 4, DHEA 250 μg single injection at time 0 i.p., NaCl 10% RS, 96 hr)?
The value was 30%.

And the “% cumulative survival” value ([1]; Table 5 group D, DHEA 250 μg single injection at time 0 i.p., NaCl 10% PLE, 24 hrs, 1st exp.)?
The value was 40%.

And the “% cumulative survival” value ([1]; Table 5 group D, DHEA 250 μg single injection at time 0 i.p., NaCl 10% PLE, 48 hrs, 1st exp.)?
Its value is 30%.

What about the “% cumulative survival” value ([1]; Table 5 group D, DHEA 250 μg single injection at time 0 i.p., NaCl 10% PLE, 72 hrs, 1st exp.) of the same compound?
Its value is 30%.

What about the “% cumulative survival” value ([1]; Table 5 group D, DHEA 250 μg single injection at time 0 i.p., NaCl 10% PLE, 96 hrs, 1st exp.) of the same compound?
Its value is 30%.

What about the “% cumulative survival” value ([1]; Table 5 group E, DHEA 62.5 μg x4 at time 0, 3, 6 and 24 hours i.p., NaCl 10% PLE, 24 hrs, 1st exp.) of the same compound?
The value was 40%.

And the “% cumulative survival” value ([1]; Table 5 group E, DHEA 62.5 μg x4 at time 0, 3, 6 and 24 hours i.p., NaCl 10% PLE, 24 hrs, 2nd exp.)?
The value was 40%.

And the “% cumulative survival” value ([1]; Table 5 group E, DHEA 62.5 μg x4 at time 0, 3, 6 and 24 hours i.p., NaCl 10% PLE, 48 hrs, 1st exp.)?
Its value is 40%.

And the “% cumulative survival” value ([1]; Table 5 group E, DHEA 62.5 μg x4 at time 0, 3, 6 and 24 hours i.p., NaCl 10% PLE, 48 hrs, 2nd exp.)?
The value was 40%.

What about the “% cumulative survival” value ([1]; Table 5 group E, DHEA 62.5 μg x4 at time 0, 3, 6 and 24 hours i.p., NaCl 10% PLE, 72 hrs, 1st exp.) of the same compound?
Its value is 40%.

And the “% cumulative survival” value ([1]; Table 5 group E, DHEA 62.5 μg x4 at time 0, 3, 6 and 24 hours i.p., NaCl 10% PLE, 72 hrs, 2nd exp.)?
Its value is 40%.

And the “% cumulative survival” value ([1]; Table 5 group E, DHEA 62.5 μg x4 at time 0, 3, 6 and 24 hours i.p., NaCl 10% PLE, 96 hrs, 1st exp.)?
Its value is 40%.

What about the “% cumulative survival” value ([1]; Table 5 group E, DHEA 62.5 μg x4 at time 0, 3, 6 and 24 hours i.p., NaCl 10% PLE, 96 hrs, 2nd exp.) of the same compound?
The value was 40%.

And the “protection from death (survival)” value ([1]; at least 1.500 μg/mouse DHEA, 1 hour before LPS+D-Galactosamine)?
The value was 70%.

What about the “systemic resistance against lethal viral infections” value (West Nile virus) of the same compound?
The value was “regulates the systemic resistance”.

And the “protection from septic shock” value [2]?
The value was “protecting mice from septic shock”.

Source: patent publication US7012060B1, “TNF receptor and steroid hormone in a combined therapy” (priority 1995, dated 2006)
